Data published in patent publication US11339185B2, “Cyclic dinucleotides as anticancer agents” (Bristol-Myers Squibb Company, priority 2018, dated 2022).
Read-outs that look alike come from different tables or passages of the source.

Assays:
[1] = tested on: THP1-Dual cells, NF-κB pathway; assay: STING THP1 Reporter Assay, NF-κB pathway (SEAP, QUANTI-Blue); assay type: cell-based; conditions: 10% human plasma, SEAP readout (OD620), 100% activation = 100 μM cGAMP, read-out: THP1 Reporter Assays EC50 (μM) NFkB
Description: (§1) THP1-Dual™ cells were derived from the human THP-1 monocyte cell line by stable integration of two inducible reporter constructs. To this end, THP1-Dual™ cells allow the simultaneous study of the NF-κB pathway, by monitoring the activity of SEAP, and the IRF pathway by assessing the activity of a secreted luciferase (Lucia). Both reporter proteins are readily measurable in the cell culture supernatant when using QUANTI-Blue™, a SEAP detection reagent, and QUANTI-Luc™, a luciferase detection reagent.
(§2) THP1-Dual™ cells induce the activation of NF-κB in response to STING agonists. They also trigger the IRF pathway upon stimulation with STING agonists, such as cGAMP. Here, the THP-1-Dual cells were used to assess STING binders for function on the cellular level.
(§3) Serial dilutions of compounds in DMSO were added to low volume 384 well plates at 100 nl/well using an ECHO acoustic dispenser (Labcyte, model 550) to achieve final starting concentration of 100 μM in cell suspension. THP-1 Dual™ STING reporter cells (Invivogen, Dual cells cat #THPD-nfis) were added to the plates with compounds at 15,000 cells in 10 μL per well in RPMI media (Gibco, cat #11875) containing 10% human plasma in a low volume 384-well black wall clear bottom tissue culture plate (Corning, cat #3542) for SEAP assay and low volume solid white plate (Corning, cat #3826) for luciferase assay. One column of the plate was reserved for treatment with cGAMP at 100 μM for 100% activation calculation and one column for no treatment (DMSO only) for baseline activation. Plates were then incubated in 37 OC incubator at 5% CO2 for 20 hours.
(§4) In the SEAP assay, 5 μl of 2× QuantiBlue (Invivogen, cat #Rep-qb2) is added to 384 well black plates seeded with THP1 cells and incubated at 37° C. for 2 hours. Plates were read on the Envision (Perkin Elmer) at 620 nm wavelength (OD620). In the luciferase assay, 5 μl of Quantiluc (Invivogen, Rep-qlc2) is added to white 384 well plates seeded with THP1 cells and read at 5 minutes on the Envision (Perkin Elmer) using a luminescence protocol (RLU). For both cell lines, 100% activation was determined by value (RLU) of THP-1 Dual STING cells stimulated with 100 μM cGAMP (Invivogen, cat #TLRL-NACGA23-5).

[2] = target: T1, STING WT: His-TVMV-S-hSTING(155-341)-H232R (Homo sapiens, UniProt Q86WV6, H232R); assay: STING HTRF binding assay (time resolved FRET competition), STING WT; conditions: 20 nM His-tagged STING WT cytoplasmic domain, 200 nM fluorescein-labeled cGAMP analog probe, one hour; read-out: HTRF Binding Assays IC50 (μM) WT
T1 construct: STING WT: His-TVMV-S-hSTING(155-341)-H232R
Procedure: (§5) A time resolved FRET-based competition binding assay was used to assess test article binding to STING WT and STING AQ. His-tagged STING cytoplasmic domain (WT or AQ) at a concentration of 20 nM was incubated with 2.5 nM Tb-labeled anti-His antibody, test compound, and fluorescein-labeled cGAMP analog probe (BioLog cat. no. C195) at a concentration of 200 nM (STING WT) or 40 nM (STING AQ) in PBS containing 0.005% Tween-20 and 0.1% BSA for one hour. Fluorescence at 495 nm and 520 nm was measured using an EnVision microplate reader to quantify FRET between Tb-labeled anti-His antibody and fluorescein-labeled probe. Background was defined as the signal obtained in the absence of STING protein, and background subtracted FRET ratios were normalized to the maximum signal obtained in the absence of test compound. These values were converted to a percent inhibition. Percent inhibition was determined for test compounds at 11 concentrations. The IC50, defined as the concentration of competing test compound needed to reduce specific binding of the probe by 50%, was calculated using the 4 parameter logistic equation to fit the data

[3] = target: T2, STING AQ: His-TVMV-S-hSTING(155-341)-G230A-R293Q (Homo sapiens, UniProt Q86WV6, G230A/H232R/R293Q); assay: STING HTRF binding assay (time resolved FRET competition), STING AQ; conditions: 20 nM His-tagged STING AQ cytoplasmic domain, 40 nM fluorescein-labeled cGAMP analog probe, one hour; read-out: HTRF Binding Assays IC50 (μM) AQ
T2 construct: STING AQ: His-TVMV-S-hSTING(155-341)-G230A-R293Q
Procedure: as §5

[4] = tested on: THP1-Dual cells, IRF pathway (IRF3); assay: STING THP1 Reporter Assay, IRF pathway (secreted Lucia luciferase, QUANTI-Luc); assay type: cell-based; conditions: 10% human plasma, luciferase readout, 100% activation = 100 μM cGAMP, read-out: THP1 Reporter Assays EC50 (μM) IRF3
Description: as §1, §2, §3, §4

T2 sequence (Q86WV6 with tags, fused parts or gaps G230A/H232R/R293Q): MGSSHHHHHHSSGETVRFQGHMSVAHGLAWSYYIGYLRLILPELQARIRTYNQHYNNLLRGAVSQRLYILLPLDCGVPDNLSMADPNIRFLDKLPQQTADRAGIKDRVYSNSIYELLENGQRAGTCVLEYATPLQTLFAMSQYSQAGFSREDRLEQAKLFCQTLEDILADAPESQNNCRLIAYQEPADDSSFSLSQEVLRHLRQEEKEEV
T1 sequence (Q86WV6 with tags, fused parts or gaps H232R): as the sequence (Q86WV6 with tags, fused parts or gaps G230A/H232R/R293Q) above, with A99G, Q162R counted along it

SMILES | EC50 ([1]; Homo sapiens, THP1-Dual, 20 h) [µM] | IC50 [2] [µM] | IC50 [3] [µM] | EC50 ([4]; Homo sapiens, THP1-Dual, 20 h) [µM] | EC50 ([1]; 20 hours) [µM] | EC50 ([4]; 20 hours) [µM]
O=P1(S)OC[C@@H]2[C@@H](COP(=O)(S)O[C@H]3[C@@H](F)[C@H](n4cnc5c4ncn4ccnc54)O[C@@H]3CO1)C[C@H]2n1cnc2c(Cl)ncnc21 (single isomer, unassigned) [Example 18-1] | > 100 | > 100 | 26.4 | > 100 |  | 
Nc1ncnc2c1ncn2[C@@H]1C[C@@H]2COP(=O)(S)O[C@@H]3[C@H](F)[C@@H](COP(=O)(S)OC[C@H]21)O[C@H]3n1cnc2c(=O)n3cc[nH]c3nc21 (single isomer, unassigned) [Example 6-2] |  | 0.13 | 0.01 |  | 6.99 | 3.18
NC(=O)c1cc([C@@H]2O[C@@H]3COP(=O)(S)OC[C@@H]4[C@@H](COP(=O)(S)O[C@@H]2[C@@H]3O)C[C@H]4n2cnc3c(N)ncnc32)ccn1 (single isomer, unassigned) [Example 20-4] |  | > 100 | 35.7 |  | > 100 | > 100
Nc1ncnc2c1ncn2[C@@H]1C[C@@H]2COP(=O)(S)O[C@H]3[C@@H](O)[C@H](n4cnc5c(=O)n6cc[nH]c6nc54)O[C@@H]3COP(=O)(S)OC[C@H]21 (single isomer, unassigned) [Example 5-2] |  | > 100 | 11.8 |  | > 100 | > 100
Nc1ncnc2c1ncn2[C@@H]1O[C@@H]2COP(=O)(S)OC[C@@H]3[C@@H](COP(=O)(S)O[C@H]2[C@H]1F)C[C@H]3n1cnc2c(O)n3ccnc3nc21 (single isomer, unassigned) [Example 1-2] |  | 0.9 | 0.04 |  | 54 | 31.3
Nc1ncnc2c1ncn2[C@@H]1C[C@@H]2COP(=O)(S)O[C@H]3[C@@H](F)[C@H](n4cnc5c4ncn4ccnc54)O[C@@H]3COP(=O)(S)OC[C@H]21 (single isomer, unassigned) [Example 17-2] |  | 39 | 0.46 |  | > 100 | > 100
Nc1ncnc2c1ncn2[C@@H]1O[C@@H]2COP(=O)(S)OC[C@@H]3[C@@H](COP(=O)(S)O[C@H]2[C@H]1F)C[C@H]3n1cnc2c1ncn1ccnc21 (single isomer, unassigned) [Example 3-2] |  | 1.49 | 0.03 |  | 42.6 | 26.6
Nc1ncnc2c1ncn2[C@@H]1C[C@@H]2COP(=O)(S)O[C@H]3[C@@H](O)[C@H](n4cnc5c(=O)n6cc[nH]c6nc54)O[C@@H]3COP(=O)(S)OC[C@H]21 (single isomer, unassigned) [Example 5-4] |  | 34.5 | 0.11 |  | > 100 | > 100
NC(=O)c1cc([C@@H]2C[C@@H]3COP(=O)(O)O[C@H]4[C@@H](F)[C@H](n5cnc6c(N)ncnc65)O[C@@H]4COP(=O)(O)OC[C@H]32)ccn1 [Example 12, 4-[(1R,6S,8R,9S,15R,17R,18R)-17-(6-amino-9H-purin-9-yl)-18-fluoro-3,12-dihydroxy-3,12-dioxo-2,4,11,13,16-pentaoxa-3λ^5,12λ^5-diphosphatricyclo[13.3.0.0^6,9]octadecan-8-yl]pyridine-2-carboxamide] | > 100 | 31.2 | 0.35 | > 100 |  | 
Nc1ncnc2c1ncn2[C@@H]1O[C@@H]2COP(=O)(S)OC[C@@H]3[C@@H](COP(=O)(S)O[C@H]2[C@H]1F)C[C@H]3n1cnc2c(=O)[nH]cnc21 (single isomer, unassigned) [Example 22-3] |  | 2.71 | 0.04 |  | > 100 | > 100
Nc1ncnc2c1ncn2[C@@H]1O[C@@H]2COP(=O)(S)OC[C@@H]3[C@@H](COP(=O)(S)O[C@H]2[C@H]1F)C[C@H]3n1cnc2c1ncn1ccnc21 (single isomer, unassigned) [Example 3-1] |  | 1.38 | 0.09 |  | > 100 | 93.1
Nc1ncnc2c1ncn2[C@@H]1C[C@@H]2COP(=O)(S)O[C@@H]3[C@H](O)[C@@H](COP(=O)(S)OC[C@H]21)O[C@H]3n1cnc2c(=O)n3ccnc3[nH]c21 (single isomer, unassigned) [Example 2-1] | 7.15 | 0.06 | 0.002 | 3.07 |  | 
Nc1ncnc2c1ncn2[C@@H]1C[C@@H]2COP(=O)(S)O[C@@H]3[C@H](F)[C@@H](COP(=O)(S)OC[C@H]21)O[C@H]3n1cnc2c(=O)n3cc[nH]c3nc21 (single isomer, unassigned) [Example 6-4] |  | 19.4 | 0.63 |  | > 100 | > 100
Nc1ncnc2c1ncn2[C@@H]1C[C@@H]2COP(=O)(S)O[C@@H]3[C@H](F)[C@@H](COP(=O)(S)OC[C@H]21)O[C@H]3n1cnc2c1ncn1ccnc21 (single isomer, unassigned) [Example 8-1] |  | 11.1 | 3.41 |  | > 100 | > 100
NC(=O)c1cc([C@@H]2C[C@@H]3COP(=O)(S)O[C@H]4[C@@H](F)[C@H](n5cnc6c(N)ncnc65)O[C@@H]4COP(=O)(O)OC[C@H]32)ccn1 (single isomer, unassigned) [Example 13] | 90 | 4.78 | 0.1 | 54.6 |  | 
Nc1ncnc2c1ncn2[C@@H]1O[C@@H]2COP(=O)(S)OC[C@@H]3[C@@H](COP(=O)(S)O[C@H]2[C@H]1F)C[C@H]3n1cnc2c(=O)n3cnnc3[nH]c21 (single isomer, unassigned) [Example 21-1] |  | 0.15 | 0.004 |  | 25 | 5.36
NC(=O)c1cc([C@@H]2C[C@@H]3COP(=O)(S)OC[C@@H]4[C@@H](COP(=O)(S)OC[C@H]32)C[C@H]4n2cnc3c(N)ncnc32)ccn1 (single isomer, unassigned) [Example 15-1] | > 100 | > 100 | > 100 | > 100 |  | 
Nc1ncnc2c1ncn2[C@@H]1C[C@@H]2COP(=O)(S)O[C@@H]3[C@H](F)[C@@H](COP(=O)(S)OC[C@H]21)O[C@H]3n1cnc2c1ncn1ccnc21 (single isomer, unassigned) [Example 8-4] |  | 0.35 | 0.08 |  | 32.4 | 26.1
Nc1ncnc2c1ncn2[C@@H]1O[C@@H]2COP(=O)(S)OC[C@@H]3[C@@H](COP(=O)(S)O[C@H]2[C@H]1F)C[C@H]3n1cnc2c(=O)[nH]cnc21 (single isomer, unassigned) [Example 22-1] | > 100 | 5.68 | 0.1 |  |  | > 100
